Literature values as cited in patent US9908851B2, “2-piperidinyl substituted N,3-dihydroxybutanamides” (Duke University, priority 2013, dated 2018).
In brackets after ≈: the same amount, converted by molar mass.

Test system: N. gonorrhoeae 35/02 (drug-resistant strain)
Settings: strain 35/02; resistance profile of the strain

| Compound | MIC [µg/mL] |
| --- | --- |
| CO/N=C(\C(=O)N[C@@H]1C(=O)N2C(C(=O)O)=C(CSc3nc(=O)c(=O)[nH]n3C)CS[C@H]12)c1csc(N)n1 [ceftriaxone] | 0.12 (≈ 0.216 µM) |
| penicillin | 6 |
